Experimental findings from ChEMBL document CHEMBL6120965, “Structure-Activity Relationship Studies Leading to the Discovery of Highly Water-Soluble and Biocompatible Acyclic Cucurbit[n]uril FY-3451 as a Universal Antagonist That Rapidly Reverses Neuromuscular Blocking Agents In Vivo” (J Med Chem, 2024) are described below.

A short description of data set [1]: Water solubility of the compound measured at 25 degreeC. It is filed as physicochemical.
In data set [2] the test system is Rattus norvegicus. Put plainly: Recovery of Roc-induced neuromuscular block in Sprague-Dawley rat assessed as […] ratio (TOFr) >= 90% by measuring recovery time at 25 mg/kg, iv (reference value: 597 seconds). It is filed as functional.
A short description of data set [3]: Solubility of the compound in sodium phosphate buffered water. It is filed as physicochemical.
The subject of data set [4] is Rattus norvegicus. The data set can be described thus: Recovery of CisA-induced neuromuscular block in Sprague-Dawley rat assessed as […] ratio (TOFr) >= 90% by measuring recovery time at 80 mg/kg, iv (reference value: 784 seconds). The class given is functional.
Data set [5] relates to Rattus norvegicus. The data set can be described thus: Recovery of CisA-induced neuromuscular block in Sprague-Dawley rat assessed as […] ratio (TOFr) >= 90% by measuring recovery time at 120 mg/kg, iv (reference value: 784 seconds). It is filed as functional.
In data set [6] the test system is Rattus norvegicus. Put plainly: Recovery of Vec-induced neuromuscular block in Sprague-Dawley rat assessed as […] ratio (TOFr) >= 90% by measuring recovery time at 25 mg/kg, iv (reference value: 525 seconds). The class given is functional.
The subject of data set [7] is Rattus norvegicus. Put plainly: Recovery of Pan-induced neuromuscular block in Sprague-Dawley rat assessed as […] ratio (TOFr) >= 90% by measuring recovery time at 25 mg/kg, iv (reference value: 3600 seconds). The class given is functional.
Data set [8] concerns Rattus norvegicus. The data set can be described thus: Recovery of IMC-1-induced neuromuscular block in Sprague-Dawley rat assessed as […] ratio (TOFr) >= 90% by measuring recovery time at 10 mg/kg, iv (reference value: 4021 seconds). The class given is functional.
Data set [9] can be described thus: Toxicity in iv dosed Sprague-Dawley rat assessed as maximum tolerated dose measured upto 14 days. The class given is organism-based. Particulars: in vivo, 336 h, time < 14 day.
The next data set relates to Rocuronium. The data set can be described thus: Binding affinity to Rocuronium by Competition UV-Vis titration method.
For the next data set, the system named is Cisatracurium. Put plainly: Binding affinity to Cisatracurium by Competition UV-Vis titration method.
For a further data set, the system named is Vecuronium. Put plainly: Binding affinity to Vecuronium by Competition UV-Vis titration method.
For a further data set, the system named is Pancuronium. The data set can be described thus: Binding affinity to Pancuronium by Competition UV-Vis titration method.
In data set [10] the test system is Midazolium-based-macrocycle. Put plainly: Binding affinity to Midazolium-based-macrocycle by Competition UV-Vis titration method.
Another data set concerns Rhodamine 6G. Put plainly: Binding affinity to Rhodamine 6G by Competition UV-Vis titration method.
Data set [11] relates to Trans-cydohexane-1,4-diartunonium dichloride. The data set can be described thus: Binding affinity to Trans-[…] dichloride by Competition UV-Vis titration method.
Another data set concerns Proflavine. The data set can be described thus: Binding affinity to Proflavine by Competition UV-Vis titration method.
Data set [12] in a line: Therapeutic index, ratio of toxicity in iv dosed Sprague-Dawley rat assessed as maximum tolerated dose to recovery of Roc/Vec/Panc-induced neuromuscular block in Sprague-Dawley rat assessed as […] ratio (TOFr) by measuring recovery time at 25 mg/kg, iv. It is filed as organism-based. The note with it: in vivo, read-out: TI.
The nature of data set [13]: Therapeutic index, ratio of toxicity in iv dosed Sprague-Dawley rat assessed as maximum tolerated dose to recovery of CisA-induced neuromuscular block in Sprague-Dawley rat assessed as […] ratio (TOFr) by measuring recovery time at 80 to 100 mg/kg, iv. It is filed as organism-based. The note with it: in vivo, dose 80-100 mg/kg, read-out: TI.

`CC[C@]12N3Cc4c(OCCCS(=O)(=O)[O-])ccc(OCCCS(=O)(=O)[O-])c4CN1C(=O)N1CN4C(=O)N5CN6C(=O)N7CN8C(=O)N9Cc%10c(OCCCS(=O)(=O)[O-])ccc(OCCCS(=O)(=O)[O-])c%10CN%10C(=O)N(CN%11C(=O)N(CN%12C(=O)N(CN(C3=O)[C@]12CC)[C@@H]4[C@H]%125)[C@@H]6[C@H]%117)[C@]8(CC)[C@@]9%10CC.[Na+].[Na+].[Na+].[Na+]`: the concentration in solution in [1] (solubility) was 750 mg/mL. The Time in the data set with Rattus norvegicus [2] came out at 348 s.

For the compound `C[C@]12N3Cc4c(c(OCC(C(=O)[O-])C(=O)[O-])c5ccccc5c4OCC(C(=O)[O-])C(=O)[O-])CN1C(=O)N1CN4C(=O)N5CN6C(=O)N7CN8C(=O)N9Cc%10c(c(OCC(C(=O)[O-])C(=O)[O-])c%11ccccc%11c%10OCC(C(=O)[O-])C(=O)[O-])CN%10C(=O)N(CN%11C(=O)N(CN%12C(=O)N(CN(C3=O)[C@]12C)[C@@H]4[C@H]%125)[C@@H]6[C@H]%117)[C@]8(C)[C@@]9%10C.[Na+].[Na+].[Na+].[Na+].[Na+].[Na+].[Na+].[Na+]`, the Time with Rattus norvegicus [2] was determined as 84 s.

In the case of `Cc1c(C)c(OCCCS(=O)(=O)[O-])c2c(c1OCCCS(=O)(=O)[O-])CN1C(=O)N3CN4C(=O)N5CN6C(=O)N7CN8C(=O)N9Cc%10c(c(OCCCS(=O)(=O)[O-])c(C)c(C)c%10OCCCS(=O)(=O)[O-])CN%10C(=O)N(CN%11C(=O)N(CN%12C(=O)N(CN%13C(=O)N(C2)[C@]1(C)[C@]%133C)[C@@H]4[C@@H]5%12)[C@@H]6[C@@H]7%11)[C@]8(C)[C@]%109C.[Na+].[Na+].[Na+].[Na+]`, the solubility (usually how much of the substance goes into solution per volume) in data set [1] was found to be 500 mg/mL; in data set [3], 563 mg/mL. The Time with Rattus norvegicus [2] is on record as 30 s; with Rattus norvegicus [4] it was 35 s; in the data set on Rattus norvegicus [5], 28 s; in the data set with Rattus norvegicus [6], 13 s; with Rattus norvegicus [7] it was 21 s; in the data set on Rattus norvegicus [8] it was 13 s. In addition, the maximum tolerated dose (MTD) (as a rule, the highest dose tested that stayed within the study's limit of toxicity) in data set [9] is 500 mg/kg. For the same compound, the Ka is 9.84 10^7/M with Rocuronium; 0.13 10^7/M with Cisatracurium; 2.92 10^7/M with Vecuronium; 51 10^7/M with Pancuronium; 119 10^7/M in data set [10]; 0.045 10^7/M in the data set with Rhodamine 6G. The results for the Ka (in data set [11]; in the data set on Proflavine) were 0.069 10^7/M and 13 10^7/M, respectively. Moreover, the selectivity ratio was determined as 60 in data set [12] and 18.8 in data set [13].

For `CN(C)C(=O)Oc1cccc([N+](C)(C)C)c1` [NEOSTIGMINE], the results for the Time in the data set with Rattus norvegicus [2] and with Rattus norvegicus [4] were 409 s and 276 s, respectively.

For the compound `CC[C@]12N3Cc4c(c(OCCCS(=O)(=O)[O-])c(C)c(C)c4OCCCS(=O)(=O)[O-])CN1C(=O)N1CN4C(=O)N5CN6C(=O)N7CN8C(=O)N9Cc%10c(c(OCCCS(=O)(=O)[O-])c(C)c(C)c%10OCCCS(=O)(=O)[O-])CN%10C(=O)N(CN%11C(=O)N(CN%12C(=O)N(CN(C3=O)[C@]12CC)[C@@H]4[C@H]%125)[C@@H]6[C@H]%117)[C@]8(CC)[C@@]9%10CC.[Na+].[Na+].[Na+].[Na+]`, the solubility in data set [1] was found to be 940 mg/mL. For the same compound, the Time in the data set on Rattus norvegicus [2] is given as 31 s; in the data set on Rattus norvegicus [4] it was 130 s.

Consider `C[C@]12N3Cc4c(c(OCC(=O)[O-])c5ccccc5c4OCC(=O)[O-])CN1C(=O)N1CN4C(=O)N5CN6C(=O)N7CN8C(=O)N9Cc%10c(c(OCC(=O)[O-])c%11ccccc%11c%10OCC(=O)[O-])CN%10C(=O)N(CN%11C(=O)N(CN%12C(=O)N(CN(C3=O)[C@]12C)[C@@H]4[C@H]%125)[C@@H]6[C@H]%117)[C@]8(C)[C@@]9%10C.[Na+].[Na+].[Na+].[Na+]`, for which, in the data set on Rattus norvegicus [2], the Time stood at 108 s.

In data set [1], `COc1cc(OCCCS(=O)(=O)[O-])c2c(c1OCCCS(=O)(=O)[O-])CN1C(=O)N3CN4C(=O)N5CN6C(=O)N7CN8C(=O)N9Cc%10c(c(OCCCS(=O)(=O)[O-])cc(OC)c%10OCCCS(=O)(=O)[O-])CN%10C(=O)N(CN%11C(=O)N(CN%12C(=O)N(CN%13C(=O)N(C2)C1(C)C%133C)C4C%125)C6C%117)C8(C)C%109C.[Na+].[Na+].[Na+].[Na+]` (stereo not given) gave a solubility of 870 mg/mL. Besides, the Time with Rattus norvegicus [2] stood at 40 s.

Consider `CC[C@]12N3Cc4c(c(OCCCS(=O)(=O)[O-])c5ccccc5c4OCCCS(=O)(=O)[O-])CN1C(=O)N1CN4C(=O)N5CN6C(=O)N7CN8C(=O)N9Cc%10c(c(OCCCS(=O)(=O)[O-])c%11ccccc%11c%10OCCCS(=O)(=O)[O-])CN%10C(=O)N(CN%11C(=O)N(CN%12C(=O)N(CN(C3=O)[C@]12CC)[C@@H]4[C@H]%125)[C@@H]6[C@H]%117)[C@]8(CC)[C@@]9%10CC.[Na+].[Na+].[Na+].[Na+]`, for which, in data set [1], the solubility was 670 mg/mL. Moreover, the Time was found to be 19 s with Rattus norvegicus [2] and 57 s with Rattus norvegicus [4]. Moreover, the MTD in data set [9] worked out at 500 mg/kg.

In the case of `Cc1cc(OCCCS(=O)(=O)[O-])c2c(c1OCCCS(=O)(=O)[O-])CN1C(=O)N3CN4C(=O)N5CN6C(=O)N7CN8C(=O)N9Cc%10c(c(OCCCS(=O)(=O)[O-])cc(C)c%10OCCCS(=O)(=O)[O-])CN%10C(=O)N(CN%11C(=O)N(CN%12C(=O)N(CN%13C(=O)N(C2)C1(C)C%133C)C4C%125)C6C%117)C8(C)C%109C.[Na+].[Na+].[Na+].[Na+]` (mixture of isomers), in data set [1], the solubility came to 600 mg/mL. Further, the Time in the data set on Rattus norvegicus [2] came to 151 s.

As for `O=C(O)CCSC[C@H]1O[C@@H]2O[C@H]3[C@H](O)[C@@H](O)[C@@H](O[C@H]4[C@H](O)[C@@H](O)[C@@H](O[C@H]5[C@H](O)[C@@H](O)[C@@H](O[C@H]6[C@H](O)[C@@H](O)[C@@H](O[C@H]7[C@H](O)[C@@H](O)[C@@H](O[C@H]8[C@H](O)[C@@H](O)[C@@H](O[C@H]9[C@H](O)C(O)[C@@H](O[C@H]1[C@H](O)[C@H]2O)O[C@@H]9CSCCC(=O)O)O[C@@H]8CSCCC(=O)O)O[C@@H]7CSCCC(=O)O)O[C@@H]6CSCCC(=O)O)O[C@@H]5CSCCC(=O)O)O[C@@H]4CSCCC(=O)O)O[C@@H]3CSCCC(=O)O` (stereo not given in full), in the data set on Rocuronium, the Ka was 1.05 10^7/M.

Take `C[C@]12N3Cc4c(c(OCCC(=O)[O-])c5ccccc5c4OCCC(=O)[O-])CN1C(=O)N1CN4C(=O)N5CN6C(=O)N7CN8C(=O)N9Cc%10c(c(OCCC(=O)[O-])c%11ccccc%11c%10OCCC(=O)[O-])CN%10C(=O)N(CN%11C(=O)N(CN%12C(=O)N(CN(C3=O)[C@]12C)[C@@H]4[C@H]%125)[C@@H]6[C@H]%117)[C@]8(C)[C@@]9%10C.[Na+].[Na+].[Na+].[Na+]`: in the data set on Rattus norvegicus [2], the Time stood at 95 s.

As to `O=C1N2Cc3c(OCCCS(=O)(=O)[O-])ccc(OCCCS(=O)(=O)[O-])c3CN3C(=O)N4CN5C(=O)N6CN7C(=O)N8CN9C(=O)N%10Cc%11c(OCCCS(=O)(=O)[O-])ccc(OCCCS(=O)(=O)[O-])c%11CN%11C(=O)N(CN%12C(=O)N(CN%13C(=O)N(CN1C41CCCCC231)[C@H]5[C@H]6%13)[C@H]7[C@H]8%12)C91CCCCC%10%111.[Na+].[Na+].[Na+].[Na+]` (stereo not given in full), the solubility in data set [1] turned out to be 520 mg/mL. Moreover, in the data set with Rattus norvegicus [2], the Time was 203 s.
